# Reference: patent US20240269304A1, “BCL-XL INHIBITOR ANTIBODY-DRUG CONJUGATES AND METHODS OF USE THEREOF” (Novartis AG, priority 2020, published 2024)
# Where two headings read alike, the source gives them in different places.
# Test system: H1650 cells
# Experiment: CellTiterGlo (CTG) cell viability, 3D, 120 h, H1650 (Example 8)
# Type: cell-based, human
# Experimental: H1650 cells were cultivated in RPMI supplemented with 10% heat inactivated fetal bovine serum, penicillin (100 IU/ml), streptomycin (100 μg/ml) and L-glutamine (2 mM). Cell lines were cultured at 37° C. in a humidified atmosphere containing 5% 002. Cells were seeded in 96 microwell round bottom plates (96 microwell Low attachment plates , Costar reference 7007) and exposed to the payloads or ADCs for 120 h (serially diluted; 9 concentrations each, duplicates). Effects of payloads or ADCs on cell viability were assessed after 5 days of incubation at 37° C./5% CO2 by quantification of cellular ATP levels using CellTiterGlo at 75 μL reagent/well. All the conditions were tested in duplicates. Luminescence was quantified on a multipurpose plate reader. IC50S were calculated using standard four-parametric curve fitting. […] Each experiment was performed at least twice, with results being reproducible.
# [1] = H1650 3D, experiment n1, read-out: H1650 3D CTG IC50 n1
# [2] = H1650 3D, experiment n2, read-out: H1650 3D CTG IC50 n2
# [3] = H1650 3D, mean of n1 and n2, read-out: H1650 3D CTG IC50 Mean of n1 and n2
# [4] = Homo sapiens, NCI-H1650, H1650 3D, experiment n1, read-out: H1650 3D CTG IC50 n1
# [5] = Homo sapiens, NCI-H1650, H1650 3D, experiment n2, read-out: H1650 3D CTG IC50 n2
# [6] = Homo sapiens, NCI-H1650, H1650 3D, mean of n1 and n2, read-out: H1650 3D CTG IC50 Mean of n1 and n2
Compound,IC50 [4] [nM],IC50 [5] [nM],IC50 [6] [nM],IC50 [1] [nM],IC50 [2] [nM],IC50 [3] [nM]
Cc1cc(N(C)c2nc(C(=O)O)c(CCCOc3ccc(C#CC[N+](C)(C)Cc4ccc(NC(=O)[C@H](CCCNC(N)=O)NC(=O)[C@@H](NC(=O)CCOCCN5C(=O)CC(C)C5=O)C(C)C)cc4)cc3F)s2)nnc1Nc1nc2ccccc2s1 (stereo partly drawn) [Ab C - L9A-P2],,,,4.2,7,5.6
Cc1c(Nc2nc3ccccc3s2)nnc2c1CCCN2c1nc(C(=O)[O-])c(CCCOc2ccc(C#CCN3CC[N+](C)(Cc4ccc(NC(=O)[C@H](CCCNC(N)=O)NC(=O)[C@@H](NC(=O)CCOCCN5C(=O)CC(C)C5=O)C(C)C)cc4)CC3)cc2F)s1 (stereo partly drawn) [Ab C - L9A-P10],,,,0.3,0.5,0.4
Cc1cc(N(C)c2nc(C(=O)[O-])c(CCCOc3ccc(C#CC[N+](C)(C)Cc4ccc(NC(=O)[C@H](C)NC(=O)[C@@H](NC(=O)CCOCCN5C(=O)CC(C)C5=O)C(C)C)cc4CC[C@@H]4O[C@H](C(=O)O)[C@@H](O)[C@H](O)[C@H]4O)cc3F)s2)nnc1Nc1nc2ccccc2s1 (stereo partly drawn) [Ab C - L106A-P2],,,,1,0.7,0.85
Cc1cc(N(C)c2nc(C(=O)[O-])c(CCCOc3ccc(C#CC[N+](C)(C)Cc4ccc(O[C@@H]5O[C@H](C(=O)O)[C@@H](O)[C@H](O)[C@H]5O)c(NC(=O)CCNC(=O)CCOCCN5C(=O)CC(C)C5=O)c4)cc3F)s2)nnc1Nc1nc2ccccc2s1 (stereo partly drawn) [Ab C - L108A-P2],,,,2.1,0.97,1.54
"CNCC#Cc1ccc(OCCCc2sc(N3CCCc4c3nnc(Nc3nc5ccccc5s3)c4C)nc2C(=O)O)c(F)c1 [P3, 2-{3-[(1,3-Benzothiazol-2-yl)amino]-4-methyl-5H,6H,7H,8H-pyrido[2,3-c]pyridazin-8-yl}-5-(3-{2-fluoro-4-[3-(methylamino)prop-1-yn-1-yl]phenoxy}propyl)-1,3-thiazole-4-carboxylic acid]",4,28,16,,,
"Cc1cc(N(C)c2nc(C(=O)O)c(CCCOc3ccc(C#CC(C)N(C)C)cc3F)s2)nnc1Nc1nc2ccccc2s1 (stereo not drawn) [P11, 2-[[6-(1,3-Benzothiazol-2-ylamino)-5-methyl-pyridazin-3-yl]-methyl-amino]-5-[3-[4-[3-(dimethylamino)but-1-ynyl]-2-fluoro-phenoxy]propyl]thiazole-4-carboxylic acid]",0.7,1.2,0.95,,,
"Cc1c(Nc2nc3ccccc3s2)nnc2c1CCCN2c1nc(C(=O)O)c(CCCOc2ccc(C#CCNCCN(C)C)cc2F)s1 [P12, 2-[3-(1,3-Benzothiazol-2-ylamino)-4-methyl-6,7-dihydro-5H-pyrido[2,3-c]pyridazin-8-yl]-5-[3-[4-[3-[2-(dimethylamino)ethylamino]prop-1-ynyl]-2-fluoro-phenoxy]propyl]thiazole-4-carboxylic acid]",0.95,2,1.48,,,
"CCN(CC)CC#Cc1ccc(OCCCc2sc(N3CCCc4c3nnc(Nc3nc5ccccc5s3)c4C)nc2C(=O)O)c(F)c1 [P14, 2-[3-(1,3-Benzothiazol-2-ylamino)-4-methyl-6,7-dihydro-5H-pyrido[2,3-c]pyridazin-8-yl]-5-[3-[4-[3-(diethylamino)prop-1-ynyl]-2-fluoro-phenoxy]propyl]thiazole-4-carboxylic acid]",1.9,5.4,3.65,,,
"Cc1c(Nc2nc3ccccc3s2)nnc2c1CCCN2c1nc(C(=O)O)c(CCCOc2ccc(C#CCN3CCC(F)(F)CC3)cc2F)s1 [P15, 2-{3-[(1,3-Benzothiazol-2-yl)amino]-4-methyl-5H,6H,7H,8H-pyrido[2,3-c]pyridazin-8-yl}-5-(3-{4-[3-(4,4-difluoropiperidin-1-yl)prop-1-yn-1-yl]-2-fluorophenoxy}propyl)-1,3-thiazole-4-carboxylic acid]",0.98,1.2,1.09,,,
"CNCCOC1Cc2c(nnc(Nc3nc4ccccc4s3)c2C)N(c2nc(C(=O)O)c(CCCOc3ccc(C#CCN(C)C)cc3F)s2)C1 (stereo not drawn) [P16, 2-{3-[(1,3-Benzothiazol-2-yl)amino]-4-methyl-6-[2-(methylamino)ethoxy]-5H,6H,7H,8H-pyrido[2,3-c]pyridazin-8-yl}-5-(3-{4-[3-(dimethylamino)prop-1-yn-1-yl]-2-fluorophenoxy}propyl)-1,3-thiazole-4-carboxylic acid]",6.1,6.2,6.15,,,
"Cc1c(Nc2nc3ccccc3s2)nnc2c1CCCN2c1nc(C(=O)O)c(CCCOc2ccc(C#CCN3CCCCC3)cc2F)s1 [P18, 2-[3-(1,3-Benzothiazol-2-ylamino)-4-methyl-6,7-dihydro-5H-pyrido[2,3-c]pyridazin-8-yl]-5-[3-[2-fluoro-4-[3-(1-piperidyl)prop-1-ynyl]phenoxy]propyl]thiazole-4-carboxylic acid]",1.8,3.5,2.65,,,
"Cc1c(Nc2nc3ccccc3s2)nnc2c1CCCN2c1ccc(-c2cnn(C[C@]34C[C@]5(C)C[C@](C)(C3)C[C@@](OCCNCC(CO)CO)(C5)C4)c2C)c(C(=O)O)n1 [P23, 6-[3-(1,3-benzothiazol-2-ylamino)-4-methyl-6,7-dihydro-5H-pyrido[2,3-c]pyridazin-8-yl]-3-[1-[[3-[2-[[3-hydroxy-2-(hydroxymethyl)propyl]amino]ethoxy]-5,7-dimethyl-1-adamantyl]methyl]-5-methyl-pyrazol-4-yl]pyridine-2-carboxylic acid]",4,2.8,3.4,,,
"Cc1c(Nc2nc3ccccc3s2)nnc2c1CCCN2c1ccc(-c2cnn(C[C@]34C[C@]5(C)C[C@](C)(C3)C[C@@](OCCNC(CO)CO)(C5)C4)c2C)c(C(=O)O)n1 [P24, 6-[3-(1,3-benzothiazol-2-ylamino)-4-methyl-6,7-dihydro-5H-pyrido[2,3-c]pyridazin-8-yl]-3-[1-[[3-[2-[[2-hydroxy-1-(hydroxymethyl)ethyl]amino]ethoxy]-5,7-dimethyl-1-adamantyl]methyl]-5-methyl-pyrazol-4-yl]pyridine-2-carboxylic acid]",2.1,1.8,1.95,,,

# More lines, main results first:
IC50 [4] [nM],IC50 [5] [nM],IC50 [6] [nM],Compound,IC50 [1] [nM],IC50 [2] [nM],IC50 [3] [nM]
0.68,0.69,0.69,"Cc1cc(N(C)c2ccc(-c3cnn(C[C@]45C[C@]6(C)C[C@](C)(C4)C[C@@](OCCNCCCO)(C6)C5)c3C)c(C(=O)O)n2)nnc1Nc1nc2ccccc2s1 [P26, 6-[[6-(1,3-benzothiazol-2-ylamino)-5-methyl-pyridazin-3-yl]-methyl-amino]-3-[1-[[3-[2-(3-hydroxypropylamino)ethoxy]-5,7-dimethyl-1-adamantyl]methyl]-5-methyl-pyrazol-4-yl]pyridine-2-carboxylic acid]",,,
0.22,0.3,0.26,"Cc1c(Nc2nc3ccccc3s2)nnc2c1CCCN2c1ccc(-c2cnn(C[C@]34C[C@]5(C)C[C@](C)(C3)C[C@@](OCCN(C)C)(C5)C4)c2C)c(C(=O)O)n1 [P27, 6-{3-[(1,3-benzothiazol-2-yl)amino]-4-methyl-6,7-dihydropyrido[2,3-c]pyridazin-8(5H)-yl}-3-[1-({3-[2-(dimethylamino)ethoxy]-5,7-dimethyladamantan-1-yl}methyl)-5-methyl-1H-pyrazol-4-yl]pyridine-2-carboxylic acid]",,,
0.39,0.18,0.29,"Cc1c(Nc2nc3ccccc3s2)nnc2c1CCCN2c1nc(C(=O)O)c(CCCOc2ccc(C#CCN(C)C)cc2)s1 [P28, 2-[3-(1,3-benzothiazol-2-ylamino)-4-methyl-6,7-dihydro-5H-pyrido[2,3-c]pyridazin-8-yl]-5-[3-[4-[3-(dimethylamino)prop-1-ynyl]phenoxy]propyl]thiazole-4-carboxylic acid]",,,
0.57,0.47,0.52,"COCCCNCCOC12CC3(C)CC(C)(CC(Cn4ncc(-c5ccc(N(C)c6cc(C)c(Nc7nc8ccccc8s7)nn6)nc5C(=O)O)c4C)(C3)C1)C2 [P29, 6-[[6-(1,3-benzothiazol-2-ylamino)-5-methyl-pyridazin-3-yl]-methyl-amino]-3-[1-[[3-[2-(3-methoxypropylamino)ethoxy]-5,7-dimethyl-1-adamantyl]methyl]-5-methyl-pyrazol-4-yl]pyridine-2-carboxylic acid]",,,
0.57,1.4,0.99,"Cc1c(Nc2nc3ccccc3s2)nnc2c1CCCN2c1ccc(-c2cnn(C[C@]34C[C@]5(C)C[C@](C)(C3)C[C@@](OCCN3CCNCC3)(C5)C4)c2C)c(C(=O)O)n1 [P31, 6-[3-(1,3-benzothiazol-2-ylamino)-4-methyl-6,7-dihydro-5H-pyrido[2,3-c]pyridazin-8-yl]-3-[1-[[3,5-dimethyl-7-(2-piperazin-1-ylethoxy)-1-adamantyl]methyl]-5-methyl-pyrazol-4-yl]pyridine-2-carboxylic acid]",,,
0.24,0.22,0.23,"Cc1c(Nc2nc3ccccc3s2)nnc2c1CCCN2c1ccc(-c2cnn(C[C@]34C[C@]5(C)C[C@](C)(C3)C[C@@](OCCN3CCN(C(C)C)CC3)(C5)C4)c2C)c(C(=O)O)n1 [P32, 6-[3-(1,3-benzothiazol-2-ylamino)-4-methyl-6,7-dihydro-5H-pyrido[2,3-c]pyridazin-8-yl]-3-[1-[[3-[2-(4-isopropylpiperazin-1-yl)ethoxy]-5,7-dimethyl-1-adamantyl]methyl]-5-methyl-pyrazol-4-yl]pyridine-2-carboxylic acid]",,,
